This note sets out measurements from US20250228858A1, “ANTI-CANCER COMBINATION THERAPY” (Boehringer Ingelheim International GmbH, priority 2023, published 2025).

Holding throughout (format): in vivo
Assay [1] relates to HER2-overexpressing human esophagus cancer cell line OE19. Particulars: day 20, zongertinib 20 mg/kg qdx20 p.o., T-DXd 3 mg/kg q21dx1 i.v., alone or combined; for Regressions >30%: tumors regressed/total. On the procedure:
The study is performed in human esophagus cancer cell line OE19 grown as subcutaneous xenografts in NMRI-Foxn1^nu mice. Day 1 was the first day, day 20 the final day of analysis.
OE19 is a HER2-overexpressing human esophagus cancer cell line that can be obtained from the European Collection of Authenticated Cell Cultures (ACACC Cat. No. 960071721). Cells are cultured in T75, T175 and 5-Layer tissue culture flasks at 37° C. and 5% CO2. The medium used is RPMI 1640 (ATCC #30-2001) supplemented with 10% FCS (Thermo Scientific #SH 30084.03). Cultures are split twice weekly with a ratio of 1:3-1:4.
To establish subcutaneous tumors, OE19 cells are harvested by centrifugation, washed and resuspended in PBS+5% FCS at 5×10^7 cells/ml. 100 μl cell suspension containing 5×10^6 cells is injected subcutaneously into the right flank of the mice (1 site per mouse).
Tumor volumes and side effects are monitored as described in Example 1 (see paragraph 1.1.6), except that control animals are sacrificed when the median tumor volume of the group reaches a size of approximately 1190 mm^3.
The statistical evaluation of the tumor volume and the body weight is conducted on day 20.

For assay [2], the system named is HER2-overexpressing human breast cancer cell line BT-474. Particulars: alone or combined. On the procedure:
The study is performed in human breast cancer cell line BT-474 grown as orthotopic xenografts in NMRI-Foxn1^nu mice. Day 1 was the first day, day 42 the last day of treatment and final day of analysis.
BT-474 is a HER2-overexpressing human breast cancer cell line that can be obtained from ATCC (lot #61136823). Cells are cultured in T75, T175 and 5-Layer tissue culture flasks at 37° C. and 5% CO2. The medium used is Hybri-Care (ATCC, 46-X) supplemented with 1.5 g/L sodium bicarbonate (GIBCO, Ref.: 25080-060) and 10% FCS (Cytiva HyClone Characterized FBS, SH30084.03n). Cultures are split twice weekly with a ratio of 1:2-1:3.
To establish subcutaneous tumors, BT-474 cells are harvested by centrifugation, washed and resuspended in PBS+5% FCS at 5×10^7 cells/ml. […] cell suspension containing 5×10^6 cells is injected orthotopically into the right mammary fat pad of isoflurane anesthetized mice (1 site per mouse).
Pertuzumab can be purchased from Roche Pharma AG. Pertuzumab is diluted with saline (0.9%) and administered intraperitoneally with a volume of 10 ml/kg.
Mice in the control group are treated with vehicle, i.e.: • (i) 0.5% Natrosol, administered once daily for the duration of the treatment intragastrally by gavage needle with a volume of 10 ml/kg body weight; and • (ii) saline (0.9%), administered once every 3 weeks intravenously into the tail vein with a volume of 5 ml/kg; and • (iii) saline (0.9%), administered once every week intraperitoneally with a volume of 10 ml/kg.
Tumor volumes and side effects are monitored as described in Example 1 (see paragraph 1.1.6), except that control animals are sacrificed when the median tumor volume of the group reaches a size of approximately 470 mm^3.
The statistical evaluation of the tumor volume and the body weight is conducted on day 42 (last day of the study). Apart from this, statistical analysis was performed as described in Example 1 (see paragraph 1.1.7), with no evaluation of tumor growth after stop of treatment.

Assay [3] concerns HER2-overexpressing human breast cancer cell line HCC1954. The following applies: zongertinib 20 mg/kg qdx21 p.o., T-DXd 1 mg/kg q21dx1 i.v., pertuzumab 20 mg/kg q7dx3 i.p., alone or combined. On the procedure: Day 1 was the first day, day 21 the last day of treatment and final day of analysis.
Cells are cultured in T75, T175 and 5-Layer tissue culture flasks at 37° C. and 5% CO2.
The statistical evaluation of the tumor volume and the body weight is conducted on day 21 (last day of the study). Apart from this, statistical analysis was performed as described in Example 1 (see paragraph 1.1.7), with no evaluation of tumor growth after stop of treatment.

Read-outs that look alike come from different tables or passages of the source.

As to `C=CC(=O)NC1CCN(c2ncc3ncnc(Nc4ccc(Oc5ccc6c(c5)ncn6C)c(C)c4)c3n2)CC1` [Zongertinib, N-{1-[8-({3-methyl-4-[(1-methyl-1H-1,3-benzodiazol-5-yl)oxy]phenyl}amino)-[1,3]diazino [5,4-d]pyrimidin-2-yl]piperidin-4-yl}prop-2-enamide], the “Regressions >30%” value in assay [1] is 0/8; in assay [1] (listed as zongertinib), “no tumors”; in assay [2] (day 42, tumors regressed/total (partial response), zongertinib 10 mg/kg qdx42 p.o., T-DXd 1 mg/kg q21dx2 i.v., pertuzumab 20 mg/kg q7dx6 i.p.), 0/8; in assay [3] (tumors regressed/total (partial response)), 0/8. Also, the TGI amounted to 73% in assay [1]; 70% in assay [2] (day 42, zongertinib 10 mg/kg qdx42 p.o., T-DXd 1 mg/kg q21dx2 i.v., pertuzumab 20 mg/kg q7dx6 i.p.); 68% in assay [3] (day 21). Further, the “stable disease (tumors remained stable)” value in assay [2] (day 42, zongertinib 10 mg/kg qdx42, T-DXd 1 mg/kg q21dx2) was 2 out of 8. Also, the “effect on tumor growth (median tumor volumes over time)” value in assay [2] (zongertinib 10 mg/kg qdx42, T-DXd 1 mg/kg q21dx2, pertuzumab 20 mg/kg q7dx6) is recorded as “delayed tumor growth, but median tumor volumes increased in the course of the experiment”.
